Reference: ChEMBL document CHEMBL1140625 (Bioorg Med Chem, 2007)

Molecular target: Human immunodeficiency virus type 1 integrase (Human immunodeficiency virus 1, UniProt Q7ZJM1)
Experiment: Inhibition of HIV1 integrase

Human immunodeficiency virus type 1 integrase, sequence (Q7ZJM1 whole entry): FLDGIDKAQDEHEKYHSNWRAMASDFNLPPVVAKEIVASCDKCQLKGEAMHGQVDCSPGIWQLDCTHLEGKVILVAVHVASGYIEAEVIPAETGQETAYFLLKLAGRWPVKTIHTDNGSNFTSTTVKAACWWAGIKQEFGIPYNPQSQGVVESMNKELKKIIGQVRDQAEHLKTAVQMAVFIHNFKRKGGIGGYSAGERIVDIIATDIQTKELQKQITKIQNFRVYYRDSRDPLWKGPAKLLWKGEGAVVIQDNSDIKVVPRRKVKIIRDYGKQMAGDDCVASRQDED

| SMILES | IC50 |
| --- | --- |
| O=C(/C=C(\O)c1nc[nH]n1)c1ccc(Cc2ccc(F)cc2)[nH]1 | < 1000 nM |
| O=C(/C=C(\O)c1cc[nH]c1)c1ccc(Cc2ccc(F)cc2)o1 | < 1000 nM |
